Values quoted from earlier work as cited in patent US10988420B2, “Nanoparticles of layered double hydroxides containing non-polar compounds of plant origin, and method for the separation and selective release of said compounds” (UNIVERSIDAD DE GUADALAJARA, priority 2015, dated 2021).

Conditions: lycopene not encapsulated; prior art (Meléndez-Martinez 2004)

- temperature at which lycopene is decomposed: 100-150 °C
Compound: CC(C)=CCC/C(C)=C/C=C/C(C)=C/C=C/C(C)=C/C=C/C=C(C)/C=C/C=C(C)/C=C/C=C(\C)CCC=C(C)C [lycopene]
